# Where two headings read alike, the source gives them in different places.
# Legend:
# Type in all cases: cell-based
# [1] = biological target: T1, CXCR4 receptor (Homo sapiens, UniProt P61073); experiment: Functional FLIPR assay (block of SDF-1 alpha induced [Ca2+]i change); details: HEK-293 cells with human CXCR4 BacMam and Gqi5 BacMam; antagonism of SDF-1 alpha; read-out: Functional assay (pIC50) (converted)
# T1 construct: expressed in transfected cells; host or cells: HEK-293 cells (stably expressing human macrophage scavenging receptor) transduced with human CXCR4 BacMam and Gqi5 BacMam
# Protocol: Human embryonic kidney (HEK-293) cells were maintained and harvested as described above. Cells were plated in 96-well, black clear bottom, poly-lysine coated plates at a concentration of 40,000 cells per well in a final volume of 100 ul containing human CXCR4 BacMam (MOI=25) and Gqi5 BacMam (MOI=12.5). The cells were incubated at 37° C., 5% CO2, 95% humidity for 24 h to allow for protein expression.
# After the required incubation time the cells were washed once with 50 ul of fresh serum-free DMEM/F12 media containing probenicid. 50 ul of dye solution was then added to the cells (Calcium Plus Assay Kit Dye; Molecular Devices) was dissolved in 200 ml of the above probenicid/BSA containing media and incubated for 1 h. Cell plates were transferred to a Fluorometric Imaging Plate Reader (FLIPR). Upon addition the effect of the compounds on the change in [Ca^2+]i was examined to determine if the compounds were agonists or antagonists (ability to block SDF-1 alpha activity) at the CXCR4 receptor. IC50 values are determined and pKb values are calculated using the Leff and Dougall equation: KB=IC50/((2+([agonist]/EC50̂b)̂1/b -1) Where IC50 is that defined by the antagonist concentration-response curve [agonist] is the EC80 concentration of agonist used EC50 is that defined by the agonist concentration-response curve b is the slope of the agonist concentration-response curve.
# [2] = tested on: HIV-1 gp160 (HXB2 strain) mediated fusion with HOS (hCXCR4/hCCR5/hCD4/pHIV-LTR-luciferase) cells; experiment: Cell/cell fusion assay (HEK-293 expressing HIV-1 tat, rev, gp160 with HOS hCXCR4/hCCR5/hCD4/pHIV-LTR-luciferase cells); details: Homo sapiens, HEK293; luciferase readout after 24 h; read-out: Fusion assay (pIC50) (converted)
# Excerpt: The complete coding sequences of HIV-1 tat (GenBank Accession No. X07861) and rev (GenBank Accession No. M34378) were cloned into pcDNA3.1 expression vectors containing G418 and hygromycin resistance genes, respectively. The complete coding sequence of the HIV-1 (HXB2 strain) gp160 envelope gene (nucleotide bases 6225-8795 of GenBank Accession No. K03455) was cloned into plasmid pCRII-TOPO. The three HIV genes were additionally inserted into the baculovirus shuttle vector, pFastBacMam1, under the transcriptional control of the CMV promoter. A construction of the pHIV-I LTR containing mutated NFkB sequences linked to the luciferase reporter gene was prepared by digesting pcDNA3.1, containing the G418 resistance gene, with Nru I and Bam HI to remove the CMV promoter. LTR-luc was then cloned into the Nru I/Bam HI sites of the plasmid vector. Plasmid preparations were performed after the plasmids were amplified in Escherichia coli strain DH5-alpha. The fidelity of the inserted sequences was confirmed by double-strand nucleotide sequencing using an ABI Prism Model 377 automated sequencer.
# Recombinant BacMam baculoviruses were constructed from pFastBacMam shuttle plasmids by using the bacterial cell-based Bac-to-Bac system. Viruses were propagated in Sf9 (Spodoptera frugiperda) cells cultured in Hink's TNM-FH Insect media supplemented with 10% (v/v) fetal bovine serum and 0.1% (v/v) pluronic F-68 according to established protocols.
# Human osteosarcoma (HOS) cells that naturally express human CXCR4 were transfected with human CCR5, human CD4 and the pHIV-LTR-luciferase plasmid using FuGENE 6 transfection reagent. Single cells were isolated and grown under selection condition in order to generate a stable HOS (hCXCR4/hCCR5/hCD4/pHIV-LTR-luciferase) clonal cell line. The cells were maintained in Dulbeccos modified Eagles media supplemented with 10% fetal calf serum (FCS), G418 (400 ug/ml), puromycin (1 ug/ml), mycophenolic acid (40 ug/ml), xanthine (250 ug/ml) and hypoxanthine (13.5 ug/ml) to maintain a selection pressure for cells expressing the LTR-luciferase, hCCR5 and hCD4, respectively. Human embryonic kidney (HEK-293) cells stably transfected to express the human macrophage scavenging receptor (Class A, type 1; GenBank Accession No. D90187), were maintained in DMEM/F-12 media (1:1) supplemented with 10% FCS and 1.5 ug/ml puromycin. The expression of this receptor by the HEK-293 cells enhances their ability to stick to tissue culture treated plasticware.
# HEK-293 cells were harvested using enzyme-free cell dissociation buffer. The cells were resuspended in DMEM/F-12 media supplemented with 10% FCS and 1.5 ug/ml and counted. Tranductions were performed by direct addition of BacMam baculovirus containing insect cell media to cells. The cells were simultaneously transduced with BacMam baculovirus expressing HIV-1 tat, HIV-1 rev and HIV-1 gp160 (from the HXB2 HIV strain). Routinely an MOI of 10 of each virus was added to the media containing the cells. 2 mM butyric acid was also added to the cells at this stage to increase protein expression in transduced cells. The cells were subsequently mixed and seeded into a flask at 30 million cells per T225. The cells were incubated at 37° C., 5% CO2, 95% humidity for 24 h to allow for protein expression.
# HEK and HOS cells were harvested in DMEM/F-12 media containing 2% FCS and DMEM media containing 2% FCS, respectively, with no selection agents added. Compounds were plated as 1 ul spots in 100% DMSO on a 96-well CulturPlate plates. HOS cells (50 ul) were added first to the wells, followed immediately by the HEK cells (50 ul). The final concentration of each cell type was 20,000 cells per well. Following these additions, the cells were returned to a tissue culture incubator (37° C.; 5% CO2/95% air) for an additional 24 h.
# Following the 24 h incubation, total cellular luciferase activity was measured using the LucLite Plus assay kit (Packard, Meridien, Conn.). […]
# [3] = Compound cytotoxicity in the absence of virus (CellTiter-Glo); details: human; non-infected HOS cultures, cell viability; read-out: Cytotox (pIC50) (converted)
# Protocol: (§1) Compounds were profiled against two HIV-1 viruses, the M-tropic (CCR5 utilizing) Ba-L strain and the T-tropic (CXCR4 utilizing) IIIB strain. Both viruses were propagated in human peripheral blood lymphocytes. Compounds were tested for there ability to block infection of the HOS cell line (expressing hCXCR4/hCCR5/hCD4/pHIV-LTR-luciferase) by either HIV-1 Ba-L or HIV-1 IIIB. Compound cytotoxicity was also examined in the absence of virus addition.
# (§2) HOS cells (expressing hCXCR4/hCCR5/hCD4/pHIV-LTR-luciferase) were harvested and diluted in Dulbeccos modified Eagles media supplemented with 2% FCS and non-essential amino acid to a concentration of 60,000 cells/ml. The cells were plated into 96-well plates (100 ul per well) and the plates were placed in a tissue culture incubator (37° C.; 5% CO2/95% air) for a period of 24 h.
# (§3) Subsequently, 50 ul of the desired drug solution (4 times the final concentration) was added to each well and the plates were returned to the tissue culture incubator (37° C.; 5% CO2/95% air) for 1 h. Following this incubation 50 ul of diluted virus was added to each well (approximately 2 million RLU per well of virus). The plates were returned to the tissue culture incubator (37° C.; 5% CO2/95% air) and were incubated for a further 96 h.
# (§4) Following this incubation the endpoint for the virally infected cultures was quantified following addition of Steady-Glo Luciferase assay system reagent (Promega, Madison, Wis.). Cell viability or non-infected cultures was measured using a CellTiter-Glo luminescent cell viability assay system (Promega, Madison, Wis.). All luminescent readouts are performed on a Topcount luminescence detector (Packard, Meridien, Conn.).
# [4] = tested on: HIV-1 IIIB strain, T-tropic (CXCR4 utilizing); experiment: HOS HIV-1 infectivity assay
# Protocol: as §1, §2, §3, §4
# [5] = Human immunodeficiency virus 1, IIIB, HOS HIV anti-infectivity assay, strain not named in Table 2, read-out: Activity Level
# T1 sequence (P61073 whole entry): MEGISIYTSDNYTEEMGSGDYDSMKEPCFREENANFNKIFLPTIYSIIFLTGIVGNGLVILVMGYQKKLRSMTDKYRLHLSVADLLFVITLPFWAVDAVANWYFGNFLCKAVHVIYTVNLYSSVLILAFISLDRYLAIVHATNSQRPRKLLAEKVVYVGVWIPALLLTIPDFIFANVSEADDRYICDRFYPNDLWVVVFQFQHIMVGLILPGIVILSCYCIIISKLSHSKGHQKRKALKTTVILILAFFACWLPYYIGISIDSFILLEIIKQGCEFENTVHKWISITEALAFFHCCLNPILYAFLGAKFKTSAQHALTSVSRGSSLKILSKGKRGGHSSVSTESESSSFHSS
SMILES,"IC50 [4, 5] [µM]",also measured
"NCCCCN(Cc1cn2ccccc2n1)C1CCCc2cccnc21 (centres unmarked) [Example 1, N-(Imidazo[1,2-a]pyridin-2-ylmethyl)-N-(5,6,7,8-tetrahydro-8-quinolinyl)-1,4-butanediamine]",< 0.1,"IC50 [1]: 33.9 nM; IC50 [2]: 79.4 nM; IC50 at 96 h [3]: > 100000 nM; IC50 ([4]; Human immunodeficiency virus 1, HOS cells, HIV-1 IIIB, 96 h, luciferase, read-out: HOS (3B)): 0.042 µM"
"Cc1cccn2cc(CN(CCCCN)C3CCCc4cccnc43)nc12 (centres unmarked) [Example 2, N-[(8-Methylimidazo[1,2-a]pyridin-2-yl)methyl]-N-(5,6,7,8-tetrahydro-8-quinolinyl)-1,4-butanediamine]",–,"IC50 [1]: 53.7 nM; IC50 [2]: 324 nM; IC50 at 96 h [3]: > 100000 nM; IC50 ([4]; Human immunodeficiency virus 1, IIIB, HOS, 96 h, read-out: HOS (3B) (μM)): 0.023 µM; IC50 ([4]; Human immunodeficiency virus 1, IIIB, read-out: Activity Level): < 0.1 µM"
"CN1CCN(c2cccc3nc(CN(Cc4ccccn4)[C@H]4CCCc5cccnc54)cn23)CC1 [Example 30, (8S)-N-{[5-(4-Methyl-1-piperazinyl)imidazo[1,2-a]pyridin-2-yl]methyl}-N-(2-pyridinylmethyl)-5,6,7,8-tetrahydro-8-quinolinamine]",0.1 to 0.5,–
"NC1CCC(N(Cc2cn3ccccc3n2)C2CCCc3cccnc32)CC1 (centres unmarked) [Example 37, N-(Imidazo[1,2-a]pyridin-2-ylmethyl)-N-(5,6,7,8-tetrahydro-8-quinolinyl)-1,4-cyclohexanediamine]",0.1 to 0.5,–
"NCCN(Cc1cn2ccccc2n1)C1CCCc2cccnc21 (centres unmarked) [Example 42, N-(Imidazo[1,2-a]pyridin-2-ylmethyl)-N-(5,6,7,8-tetrahydroquinolin-8-yl)ethane-1,2-diamine]",0.5 to 10,–
"NCCCCCN(Cc1cn2ccccc2n1)C1CCCc2cccnc21 (centres unmarked) [Example 43, N-(Imidazo[1,2-a]pyridin-2-ylmethyl)-N-(5,6,7,8-tetrahydro-8-quinolinyl)-1,5-pentanediamine]",0.1 to 0.5,–
"NCCCN(Cc1cn2ccccc2n1)C1CCCc2cccnc21 (centres unmarked) [Example 44, N-(Imidazo[1,2-a]pyridin-2-ylmethyl)-N-(5,6,7,8-tetrahydro-8-quinolinyl)-1,3-propanediamine]",0.5 to 10,–
"NCCCCN(Cc1nc2ccccn2c1Br)C1CCCc2cccnc21 (centres unmarked) [Example 46, N-[(3-Bromoimidazo[1,2-a]pyridin-2-yl)methyl]-N-(5,6,7,8-tetrahydro-8-quinolinyl)-1,4-butanediamine]",< 0.1,–

# Now from value to molecule, other results behind:
"IC50 [4, 5] [µM]",SMILES,also measured
< 0.1,"CN1CCN(c2cccc3nc(CN(Cc4ccccc4N(C)C)[C@H]4CCCc5cccnc54)cn23)CC1 [Example 29, (8S)-N-{[2-(Dimethylamino)phenyl]methyl}-N-{[5-(4-methyl-1-piperazinyl)imidazo[1,2-a]pyridin-2-yl]methyl}-5,6,7,8-tetrahydro-8-quinolinamine]",–
< 0.1,"CN1CCN(c2cccc3nc(CN(Cc4cccnc4)[C@H]4CCCc5cccnc54)cn23)CC1 [Example 31, (8S)-N-{[5-(4-Methyl-1-piperazinyl)imidazo[1,2-a]pyridin-2-yl]methyl}-N-(3-pyridinylmethyl)-5,6,7,8-tetrahydro-8-quinolinamine]",–
< 0.1,"CN1CCN(c2cccc3nc(CN(Cc4ccncc4)[C@H]4CCCc5cccnc54)cn23)CC1 [Example 32, (8S)-N-{[5-(4-Methyl-1-piperazinyl)imidazo[1,2-a]pyridin-2-yl]methyl}-N-(4-pyridinylmethyl)-5,6,7,8-tetrahydro-8-quinolinamine]",–
< 0.1,"CN1CCN(c2cccc3nc(CN(Cc4ccccn4)[C@H]4CCCc5cccnc54)c(CO)n23)CC1 [Example 34, [5-(4-Methyl-1-piperazinyl)-2-({(2-pyridinylmethyl)[(8S)-5,6,7,8-tetrahydro-8-quinolinyl]amino}methyl)imidazo[1,2-a]pyridin-3-yl]methanol]",–
< 0.1,"CN1CCN(c2cccc3nc(CN(Cc4cccnc4)[C@H]4CCCc5cccnc54)c(CO)n23)CC1 [Example 35, [5-(4-Methyl-1-piperazinyl)-2-({(3-pyridinylmethyl)[(8S)-5,6,7,8-tetrahydro-8-quinolinyl]amino}methyl)imidazo[1,2-a]pyridin-3-yl]methanol]",–
< 0.1,"CN1CCN(c2cccc3nc(CN(Cc4ccncc4)[C@H]4CCCc5cccnc54)c(CO)n23)CC1 [Example 36, [5-(4-Methyl-1-piperazinyl)-2-({(4-pyridinylmethyl)[(8S)-5,6,7,8-tetrahydro-8-quinolinyl]amino}methyl)imidazo[1,2-a]pyridin-3-yl]methanol]",–
< 0.1,"NCCCCN(Cc1nc2ccccn2c1Cl)C1CCCc2cccnc21 (centres unmarked) [Example 45, N-[(3-Chloroimidazo[1,2-a]pyridin-2-yl)methyl]-N-(5,6,7,8-tetrahydro-8-quinolinyl)-1,4-butanediamine]",–
